# Measurements from paper PMC7014401.
# How the values were obtained:
# [1] = On-DNA RCM, Grubbs III catalyst A (150 eq), MgCl2 8000 eq (Lu et al. conditions, heterogeneous, rerun here); details: H2O:tBuOH 3:2, 0.09 mM, 25.0 °C, 1.0 h
# [2] = On-DNA RCM (terminal diene to cyclic alkene), catalyst B (Grubbs-III 2,2'-biphenyldiamine derivative, 10 eq), MgCl2 20000 eq, NH4Cl 12000 eq; details: H2O:EtOH:MeOAc 5:4:1, 0.02 mM, 25.0 °C, 0.5 h
# [3] = On-DNA RCM, Grubbs III catalyst A (10 eq), MgCl2 20000 eq, NH4Cl 12000 eq (Alternative #1); details: H2O:EtOH:MeOAc 5:4:1, 0.02 mM, 25.0 °C, 0.5 h
# [4] = On-DNA RCM, Grubbs III catalyst A (10 eq) + 2,2'-biphenyldiamine C (20 eq), MgCl2 20000 eq, NH4Cl 12000 eq (Alternative #2); details: H2O:EtOH:MeOAc 5:4:1, 0.02 mM, 25.0 °C, 0.5 h
# [5] = from C=CCCC[C@](C)(NC(=O)[C@H](CCCNC(=N)N)NC(=O)[C@H](Cc1c[nH]cn1)NC(=O)[C@H](CC(C)C)NC(=O)[C@](C)(CCCC=C)NC(=O)[C@H](CCCCN)NC(=O)[C@H](CCCNC(=N)N)NC(=O)[C@H](CCCNC(=N)N)NC(=O)[C@H](CCCNC(=N)N)NC(=O)[C@H](CCCNC(=N)N)NC(C)=O)C(=O)N[C@@H](CC(C)C)C(=O)N[C@@H](CCC(N)=O)C(=O)N[C@@H](CC(=O)O)C(=O)N[C@@H](CCc1cn(CC(=O)NC)nn1)C(N)=O, 21-membered ring
# [6] = from C=CCCCC(=O)NCCCC[C@@H](NC(=O)COCCOCCNC(=O)CCCC=C)C(=O)NC, 26-membered ring
# [7] = from C=CCCCC(=O)NCCCC[C@H](NC(=O)CCCC=C)C(=O)NC, 17-membered ring
# [8] = from C=CCCCC(=O)N(CC=C)CC(=O)NC, 8-membered ring
compound,measurement,setting,value
CNC(=O)Cn1cc(CC[C@H](NC(=O)[C@H](CC(=O)O)NC(=O)[C@H](CCC(N)=O)NC(=O)[C@H](CC(C)C)NC(=O)[C@]2(C)CCCC=CCCC[C@](C)(NC(=O)[C@H](CCCCN)NC(=O)[C@H](CCCNC(=N)N)NC(=O)[C@H](CCCNC(=N)N)NC(=O)[C@H](CCCNC(=N)N)NC(=O)[C@H](CCCNC(=N)N)NC(C)=O)C(=O)N[C@@H](CC(C)C)C(=O)N[C@@H](Cc3c[nH]cn3)C(=O)N[C@@H](CCCNC(=N)N)C(=O)N2)C(N)=O)nn1,"ring closure, conversion by HPLC (% conversion (LC/MS deconvolution))",[1]; [5],22
same,"ring closure, conversion by HPLC (% conversion (LC/MS deconvolution))",[2]; [5],52
CNC(=O)[C@H]1CCCCNC(=O)CCCC=CCCCC(=O)NCCOCCOCC(=O)N1,"ring closure, conversion by HPLC (% conversion (LC/MS deconvolution))",[3]; [6],58
same,"ring closure, conversion by HPLC (% conversion (LC/MS deconvolution))",[1]; [6],23
same,"ring closure, conversion by HPLC (% conversion (LC/MS deconvolution))",[4]; [6],61
same,"ring closure, conversion by HPLC (% conversion (LC/MS deconvolution))",[2]; [6],70
CNC(=O)[C@@H]1CCCCNC(=O)CCCC=CCCCC(=O)N1 [5-hexenoyl-Lys(5-hexenoyl)-NH-DNA],"ring closure, conversion by HPLC (% conversion (LC/MS deconvolution))",[3]; [7],72
same,"ring closure, conversion by HPLC (% conversion (LC/MS deconvolution))",[1]; [7],70
same,"ring closure, conversion by HPLC (% conversion (LC/MS deconvolution))",[4]; [7],75
same,"ring closure, conversion by HPLC (% conversion (LC/MS deconvolution))",[2]; [7],78
CNC(=O)CCOCCOCCOCCOCCn1cc(CC[C@H](NC(=O)[C@H](CC(=O)O)NC(=O)[C@H](CCC(N)=O)NC(=O)[C@H](CC(C)C)NC(=O)[C@]2(C)CCCC=CCCC[C@](C)(NC(=O)[C@H](CCCCN)NC(=O)[C@H](CCCNC(=N)N)NC(=O)[C@H](CCCNC(=N)N)NC(=O)[C@H](CCCNC(=N)N)NC(=O)[C@H](CCCNC(=N)N)NC(C)=O)C(=O)N[C@@H](CC(C)C)C(=O)N[C@@H](Cc3c[nH]cn3)C(=O)N[C@@H](CCCNC(=N)N)C(=O)N2)C(N)=O)nn1,"ring closure, conversion by HPLC (% conversion (LC/MS deconvolution))","[2]; from C=CCCC[C@](C)(NC(=O)[C@H](CCCNC(=N)N)NC(=O)[C@H](Cc1c[nH]cn1)NC(=O)[C@H](CC(C)C)NC(=O)[C@](C)(CCCC=C)NC(=O)[C@H](CCCCN)NC(=O)[C@H](CCCNC(=N)N)NC(=O)[C@H](CCCNC(=N)N)NC(=O)[C@H](CCCNC(=N)N)NC(=O)[C@H](CCCNC(=N)N)NC(C)=O)C(=O)N[C@@H](CC(C)C)C(=O)N[C@@H](CCC(N)=O)C(=O)N[C@@H](CC(=O)O)C(=O)N[C@@H](CCc1cn(CCOCCOCCOCCOCCC(=O)NC)nn1)C(N)=O, 21-membered ring",65
CNC(=O)[C@@H]1CCCCNC(=O)CCCC=CCCCC(=O)N1 [5-hexenoyl-Lys(5-hexenoyl)-NH-DNA (56-bp dsDNA)],"ring closure, conversion by HPLC (% conversion (LC/MS deconvolution))",[2]; [7],69
CNC(=O)[C@@H]1CCCCNC(=O)CCCC=CCC(=O)N[C@H](c2cccnc2)CC(=O)N1,"ring closure, conversion by HPLC (% conversion (LC/MS deconvolution))","[1]; from C=CCCCC(=O)NCCCC[C@H](NC(=O)C[C@H](NC(=O)CC=C)c1cccnc1)C(=O)NC, 19-membered ring",0
CNC(=O)CN1CC=CCCCC1=O [5-hexenoyl-(N-allyl)Gly-NH-DNA],"ring closure, conversion by HPLC (% conversion (LC/MS deconvolution))",[3]; [8],33
same,"ring closure, conversion by HPLC (% conversion (LC/MS deconvolution))",[1]; [8],65
same,"ring closure, conversion by HPLC (% conversion (LC/MS deconvolution))",[4]; [8],73
same,"ring closure, conversion by HPLC (% conversion (LC/MS deconvolution))",[2]; [8],62
